One test concerns the target Human NK1 Receptor (Homo sapiens (Human), UniProt P25103). The test is described as follows: Human NK1 receptor binding assay: radioligand (125I-Bolton-Hunter-SP) binding inhibitory activity using receptor from human lymphoblast cells (IM-9). The settings on record: hNK1 receptor binding inhibition.
The target in test [1] is Human NK2 (hNK2) receptor (Homo sapiens (Human), UniProt P21452). The test is described as follows: Human NK2 receptor binding assay: radioligand ([125I]-NK-A) binding inhibitory activity using membrane fraction of CHO cell expressing human NK2 (hNK2) receptor. To be noted: hNK2 receptor binding inhibition. The source says: Human NK2 Receptor Binding Assay
Test [2] deals with Human NK3 (hNK3) receptor (Homo sapiens (Human), UniProt P29371).
Description: Human NK3 Receptor Binding Assay
CHO cells expressing hNK3 receptor were cultured in a MEMα medium (Nikken Seibutsu Igaku Kenkyusho, K.K.) containing 100 U/mL penicillin, 100 μg/mL streptomycin and 10% inactivated dialyzed serum. The medium was removed, the adhered cells were washed with PBS, and PBS containing 5 mM EDTA was added to detach the cells from the flask. The cells were collected by centrifugation, suspended in suspension buffer A (50 mM Tris-HCl (pH 7.4) containing 120 mM NaCl, 5 mM KCl, 2 μg/mL chymostatin, 40 μg/mL bacitracin, 40 μg/ml APMSF, 1 mM EDTA), disrupted by a Polytron homogenizer (Kinematika), and centrifuged at 800×g for 10 min. The supernatant was recovered and ultracentrifuged at 100,000×g for 25 min. The precipitation fraction was suspended in suspension buffer B (50 mM Tris-HCl (pH 7.4), 0.02% bovine serum albumin, 2 μg/ml chymostatin, 40 μg/ml bacitracin, 40 μg/mL APMSF, 3 mM MnCl2), and cryopreserved (−80° C.) as a receptor reference standard.
Measurement buffer (50 mM Tris-HCl (pH 7.4), 0.02% bovine serum albumin, 2 μg/ml chymostatin, 40 μg/mL bacitracin, 40 μg/mL APMSF, 3 mM MnCl2) (50 μL) was added to a 96-well microassay plate. The membrane reference standard (300 μg/mL) suspended in a measurement buffer was added by 50 μL. […] Furthermore, 400 μM [^125I]-NK-B (Neurokinin-B (N-Me-Phe^7), [^125I]His^3-) (PerkinElmer) solution was added to each well by 50 μL.
After reaction at 25° C. for 30 min, the reaction was quenched using a cell harvester (PerkinElmer) by rapid filtration on a GF/C filter plate, and the cells were washed 5 times with 250 μL of a 50 mM Tris-HCl buffer (pH 7.4) containing 0.02% bovine serum albumin. The GF/C filter plate was dried, MicroScinti-0 (Perkin Elmer) was added by 20 μL, and the radioactivity was measured on a TopCount (PerkinElmer). The GF/C filter plate used had been immersed in 0.3% polyethyleneimine for one day.
The specific binding level is shown by a value obtained by subtracting non-specific binding level from the total binding level. The binding inhibitory activity of the test compound is shown by a ratio of the value obtained by subtracting the measurement value with addition of a test compound from the total binding level, to the value of the specific binding level.
[3] abbreviates: read-out: IC50 value hNK3, hNK3 receptor binding inhibition.

Where a name gives a salt, the structure may show the parent alone. Read-outs that look alike come from different tables or passages of the source.

Chain of Human NK1 Receptor (P25103 whole entry): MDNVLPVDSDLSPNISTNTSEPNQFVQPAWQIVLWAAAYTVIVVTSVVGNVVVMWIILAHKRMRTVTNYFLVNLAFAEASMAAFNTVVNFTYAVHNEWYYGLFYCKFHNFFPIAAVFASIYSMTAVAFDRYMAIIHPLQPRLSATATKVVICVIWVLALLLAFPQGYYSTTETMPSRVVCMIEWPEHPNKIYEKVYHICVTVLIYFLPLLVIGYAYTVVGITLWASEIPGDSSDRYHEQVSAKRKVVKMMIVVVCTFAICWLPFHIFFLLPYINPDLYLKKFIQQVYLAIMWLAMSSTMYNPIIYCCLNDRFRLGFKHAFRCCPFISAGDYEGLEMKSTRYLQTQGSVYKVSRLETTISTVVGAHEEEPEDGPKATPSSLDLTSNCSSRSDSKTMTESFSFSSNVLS
Chain of Human NK2 (hNK2) receptor (P21452 whole entry): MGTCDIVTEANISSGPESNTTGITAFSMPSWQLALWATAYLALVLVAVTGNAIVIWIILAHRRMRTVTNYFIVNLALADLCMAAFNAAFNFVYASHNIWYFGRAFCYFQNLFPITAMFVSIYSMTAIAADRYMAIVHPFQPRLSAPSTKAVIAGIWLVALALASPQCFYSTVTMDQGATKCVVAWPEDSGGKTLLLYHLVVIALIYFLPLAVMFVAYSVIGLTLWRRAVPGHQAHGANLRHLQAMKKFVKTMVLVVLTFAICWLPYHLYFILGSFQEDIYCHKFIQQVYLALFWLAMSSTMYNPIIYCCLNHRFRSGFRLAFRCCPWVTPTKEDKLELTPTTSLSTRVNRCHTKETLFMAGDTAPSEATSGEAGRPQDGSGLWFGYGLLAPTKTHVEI
Chain of Human NK3 (hNK3) receptor (P29371 whole entry): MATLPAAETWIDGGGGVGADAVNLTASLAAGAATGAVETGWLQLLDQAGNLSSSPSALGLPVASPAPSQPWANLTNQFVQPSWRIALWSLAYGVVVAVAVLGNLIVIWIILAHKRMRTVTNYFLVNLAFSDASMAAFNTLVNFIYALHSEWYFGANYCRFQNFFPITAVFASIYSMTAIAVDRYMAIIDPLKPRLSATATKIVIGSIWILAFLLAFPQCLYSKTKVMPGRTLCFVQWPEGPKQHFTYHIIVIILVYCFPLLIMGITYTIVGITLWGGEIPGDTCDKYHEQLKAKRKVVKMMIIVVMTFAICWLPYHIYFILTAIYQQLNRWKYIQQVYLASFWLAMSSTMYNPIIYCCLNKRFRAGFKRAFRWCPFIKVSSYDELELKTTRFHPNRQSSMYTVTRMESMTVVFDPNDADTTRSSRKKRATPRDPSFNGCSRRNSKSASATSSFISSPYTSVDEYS

One may read the IC50 as the concentration that gives 50% inhibition. As to `CC(=O)N1CCC(C(=O)N2C[C@@H](N(C)C(=O)N(C)c3cc(C(F)(F)F)cc(C(F)(F)F)c3)[C@H](c3ccc(Cl)c(Cl)c3)C2)CC1` (racemic) [Example 66, 1-[(3S*, 4R*)-1-[(1-acetylpiperidin-4-yl)carbonyl]-4-(3,4-dichlorophenyl)pyrrolidin-3-yl]-3-[3,5-bis(trifluoromethyl)phenyl]-1,3-dimethylurea], the IC50 at Human NK1 Receptor came to 0.075 nM; in test [1] it was 2 nM.
On the same counts, the results for `CC(=O)N1CCC(C(=O)N2CC[C@@H](N(C)C(=O)N(C)c3cc(C(F)(F)F)cc(C(F)(F)F)c3)[C@H](c3ccc(F)cc3)C2)CC1` (relative stereo) [Example 4, 1-[(3R*,4R*)-1-[(1-acetylpiperidin-4-yl)carbonyl]-3-(4-fluorophenyl)piperidin-4-yl]-3-[3,5-bis(trifluoromethyl)phenyl]-1,3-dimethylurea] are 0.11 nM and 4200 nM.
In the case of `CC(=O)N1CCC(C(=O)N2CC[C@@H](N(C)C(=O)N(C)c3cc(C(F)(F)F)cc(C(F)(F)F)c3)[C@H](c3ccc(Cl)c(Cl)c3)C2)CC1` [Example 25, 1-[(3R,4R)-1-[(1-acetylpiperidin-4-yl)carbonyl]-3-(3,4-dichlorophenyl)piperidin-4-yl]-3-[3,5-bis(trifluoromethyl)phenyl]-1,3-dimethylurea], the half-inhibitory concentration (IC50) on Human NK1 Receptor stood at 0.031 nM; in test [1], 7.1 nM; in test [2] (setting [3]), 1400 nM.
On to `CC(=O)N1CCC(C(=O)N2CC[C@@H](N(C)C(=O)Nc3ccc(Cl)cc3)[C@H](c3ccc(Cl)c(Cl)c3)C2)CC1` [Example 61, 1-[(3R,4R)-1-[(1-acetylpiperidin-4-yl)carbonyl]-3-(3,4-dichlorophenyl)piperidin-4-yl]-3-(4-chlorophenyl)-1-methylurea], for which the IC50 on Human NK1 Receptor is 290 nM; in test [1], above 100 nM; in test [2] (setting [3]), 99 nM.
As to `CC(=O)N1CCC(C(=O)N2C[C@@H](N(C)C(=O)N(C)c3cc(C(F)(F)F)cc(C(F)(F)F)c3)[C@H](c3ccc(F)cc3)C2)CC1` [Example 71b], the figures for the IC50 (at Human NK1 Receptor; in test [1]) were 0.027 nM and 7.1 nM, respectively.
On the same counts, the results for `CN(C(=O)N(C)[C@@H]1CCN(C2CCS(=O)(=O)CC2)C[C@H]1c1ccc(F)cc1)c1cc(C(F)(F)F)cc(C(F)(F)F)c1` [Example 104, 1-[3,5-bis(trifluoromethyl)phenyl]-3-[(3R,4R)-1-(1,1-dioxidetetrahydro-2H-thiopyran-4-yl)-3-(4-fluorophenyl)piperidin-4-yl]-1,3-dimethylurea monohydrochloride] are 0.073 nM and 100 nM.
On to `CC(=O)N1CCC(C(=O)N2C[C@@H](N(C)C(=O)N(C)c3cc(Cl)cc(Cl)c3)[C@H](c3ccc(F)cc3)C2)CC1` [Example 176, 1-[(3S,4R)-1-[(1-acetylpiperidin-4-yl)carbonyl]-4-(4-fluorophenyl)pyrrolidin-3-yl]-3-(3,5-dichlorophenyl)-1,3-dimethylurea], for which the IC50 at Human NK1 Receptor turned out to be 0.029 nM; in test [1], 12 nM; in test [2] (setting [3]), 600 nM.
Consider `CC(=O)N1CCC(C(=O)N2C[C@@H](N(C)C(=O)N(C)c3cc(C(F)(F)F)cc(C(F)(F)F)c3)[C@H](c3ccc(F)cn3)C2)CC1` [Example 192, 1-[(3S,4R)-1-[(1-acetylpiperidin-4-yl)carbonyl]-4-(5-fluoropyridin-2-yl)pyrrolidin-3-yl]-3-[3,5-bis(trifluoromethyl)phenyl]-1,3-dimethylurea], for which the half-maximal inhibitory concentration (IC50) at Human NK1 Receptor was determined as 0.032 nM; in test [1], 120 nM; in test [2] it was 4400 nM.
Regarding `COC(=O)N[C@H]1CC[C@H](C(=O)N2C[C@@H](N(C)C(=O)N(C)c3cc(C(F)(F)F)cc(C(F)(F)F)c3)[C@H](c3ccc(F)cc3)C2)CC1` [Example 233, methyl (trans-4-{[(3S,4R)-3-[{[3,5-bis(trifluoromethyl)phenyl](methyl)carbamoyl}(methyl)amino]-4-(4-fluorophenyl)pyrrolidin-1-yl]carbonyl}cyclohexyl)carbamate], the IC50 at Human NK1 Receptor came out at 0.049 nM; in test [1], 42 nM; in test [2] (setting [3]), 1100 nM.
For the molecule `CN(C(=O)N(C)[C@@H]1CN(C(=O)C2CCN(C(=O)C(C)(C)O)CC2)C[C@H]1c1ccc(F)cc1)c1cc(C(F)(F)F)cc(C(F)(F)F)c1` [Example 308, 1-[3,5-bis(trifluoromethyl)phenyl]-3-[(3S,4R)-4-(4-fluorophenyl)-1-{[1-(2-hydroxy-2-methylpropanoyl)piperidin-4-yl]carbonyl}pyrrolidin-3-yl]-1,3-dimethylurea], the concentration for half-maximal inhibition (IC50) came out at 0.07 nM on Human NK1 Receptor and 2.4 nM in test [1].
Regarding `CN(C(=O)N(C)[C@@H]1CN(C(=O)NC2CCOCC2)C[C@H]1c1ccc(F)cc1)c1cc(C(F)(F)F)cc(C(F)(F)F)c1` [Example 378, (3S,4R)-3-[{[3,5-bis(trifluoromethyl)phenyl](methyl)carbamoyl}(methyl)amino]-4-(4-fluorophenyl)-N-(tetrahydro-2H-pyran-4-yl)pyrrolidine-1-carboxamide], the IC50 at Human NK1 Receptor was 0.039 nM; in test [1], 59 nM; in test [2] (setting [3]) it was 650 nM.
On to `CN(C(=O)N(C)[C@@H]1CN(C(=O)N2CCN(S(C)(=O)=O)CC2)C[C@H]1c1ccc(F)cc1)c1cc(Cl)cc(Cl)c1` [Example 420, 1-(3,5-dichlorophenyl)-3-[(3S,4R)-4-(4-fluorophenyl)-1-{[4-(methylsulfonyl)piperazin-1-yl]carbonyl}pyrrolidin-3-yl]-1,3-dimethylurea], for which the IC50 was found to be 0.03 nM at Human NK1 Receptor, 77 nM in test [1] and 120 nM in test [2].

The record behind these values is patent US8592454B2, “Nitrogen-containing heterocyclic compound and use of same” (Takeda Pharmaceutical Company Limited, priority 2008, dated 2013).
